In patent US20250275537A1, “CARBOXAMIDE APYRASE INHIBITORS” (Texas Crop Science, Inc., priority 2024, published 2025):

Test system: apyrase
Assay: Apyrase inhibition assay (Method 1)
Assay type: biochemical
Settings: inhibitor conc at 1 mM stock, 10 μl per well; 1 hr room temperature; rounded average of at least two assay results
Experimental: Apyrase inhibitors useful as enhancers of pesticidal activity are assessed using an in vitro assay. The method of Windsor, Bio Techniques 33:1024-1030 (November 2002) was used as follows
96 well plates were used for the assay: (Greiner bio-one: REF-655901-96 well, PS, F-bottom, Clear, Non-binding)
• Reaction Buffer: 60 mM Hepes, 3 mM MgCl2, 3 mM CaCl2 and 3 mM ATP (pH 6.5) • Development Buffer A: 2% aqueous ammonium molybdate • Development Buffer B: 11% ascorbic acid in 37.5% TCA in water • Stop buffer C: 2% trisodium citrate in 2% acetic acid solution in water • Add 100 μl of reaction buffer to each well. • Add 10 μl of DMSO (control) or inhibitor/compound or compounds such as N1915 or orthovanadate to each well. (use inhibitor conc at 1 mM; orthovanadate at 2 mM and N1915 at 1 mM) • Add 10 μl of apyrase (concentration based on optimization —Dilute 1 U/μl enzyme to different concentrations such as 0.1U, 0.05U, 0.0025, 0.001U, 0.0005U—to find a good range) • Incubate plate at room temperature for 1 hr • Mix development buffer A and B in the ratio of 1:1.5 (just before use). • Add 50 ul of A:B mix in each well (incubate for 2 mins) • Add 50 ul of C in each well • Measure/Read Absorbance of plate @630 nm
Inhibitory data for the apyrase assay described above are provided for selected compounds in Table 3. In Table 3, D indicates inhibition of <10%.
With reference to Table 3, percent inhibition of apyrase is reported as the rounded average of at least two assay results.

Row | SMILES | % Inhibition of Apyrase
1 | COc1ccccc1NC(=O)c1ccccc1C(=O)N(C)Cc1ccccc1 [Compound I-40, N^1-benzyl-N^2-(2-methoxyphenyl)-N1-methylphthalamide] | D (D indicates inhibition of <10%)
2 | O=C(Nc1ccc(-c2c[nH]cn2)cc1)c1cccc(C(=O)Nc2ccc(-c3c[nH]cn3)cc2)c1 [Compound I-17, N^1,N^3-bis(4-(1H-imidazol-4-yl)phenyl)isophthalamide] | B (B indicates inhibition of from 20% to 30%)
3 | COC(C)(C)CNC(=O)c1ccc(C(=O)Nc2ccccc2)cc1 [Compound I-28, N^1-(2-methoxy-2-methylpropyl)-N^4-phenylterephthalamide] | C (C indicates inhibition of from 10% to 20%)
4 | CN(C)C(=O)c1ccccc1C(=O)Nc1ccc2c(c1)OCCCO2 [Compound I-12, N^1-(3,4-dihydro-2H-benzo[b][1,4]dioxepin-7-yl)-N^2,N^2-dimethylphthalamide] | B (B indicates inhibition of from 20% to 30%)
5 | CN(C(=O)c1ccccc1C(=O)Nc1ccc2c(c1)OCO2)C1CCCCC1 [Compound I-18, N^1-(benzo[d][1,3]dioxol-5-yl)-N^2-cyclohexyl-N^2-methylphthalamide] | B (B indicates inhibition of from 20% to 30%)
6 | CCNC(=O)c1cc(NC(=O)c2ccc(C(=O)Nc3ccccc3)cc2)nc2ccccc12 [Compound I-13, N^1-(4-(ethylcarbamoyl)quinolin-2-yl)-N^4-phenylterephthalamide] | B (B indicates inhibition of from 20% to 30%)
7 | COc1ccc(NC(=O)c2ccc(C(=O)Nc3ccc(OC)cc3OC)cc2)c(OC)c1 [Compound I-45, N^1,N^4-bis(2,4-dimethoxyphenyl)terephthalamide] | D (D indicates inhibition of <10%)
8 | COc1cc(NC(=O)c2ccc(C(=O)Nc3cc(OC)cc(OC)c3)cc2)cc(OC)c1 [Compound I-20, N1,N4-bis(3,5-dimethoxyphenyl)terephthalamide] | C (C indicates inhibition of from 10% to 20%)
9 | CNC(=O)c1cccc(C(=O)Nc2ccc(C#N)c(C(F)(F)F)c2)c1 [Compound I-35, N^1-(4-cyano-3-(trifluoromethyl)phenyl)-N^3-methylisophthalamide] | C (C indicates inhibition of from 10% to 20%)
10 | O=C(NCc1cccc(-n2ccnc2)c1)c1ccc(C(=O)Nc2ccccc2)cc1 [Compound I-27, N^1-(3-(1H-imidazol-1-yl)benzyl)-N^4-phenylterephthalamide] | C (C indicates inhibition of from 10% to 20%)
11 | CC1(C)NC(=O)N(c2cccc(NC(=O)c3cccc(C(=O)Nc4ccccc4)c3)c2)C1=O [Compound I-11, N^1-(3-(4,4-dimethyl-2,5-dioxoimidazolidin-1-yl)phenyl)-N^3-phenylisophthalamide] | B (B indicates inhibition of from 20% to 30%)
12 | CC(C)Cn1c(=O)c2ccccc2c(=O)n1C [Compound I-15, 2-isobutyl-3-methyl-2,3-dihydrophthalazine-1,4-dione] | B (B indicates inhibition of from 20% to 30%)
13 | Cc1cccc(C)c1NC(=O)c1ccccc1C(=O)N(C)Cc1ccccc1 [Compound I-37, N^1-benzyl-N^2-(2,6-dimethylphenyl)-N1-methylphthalamide] | D (D indicates inhibition of <10%)
14 | O=C1CCCc2cc(NC(=O)c3cccc(C(=O)Nc4ccc5c(c4)CCCC(=O)N5)c3)ccc2N1 [Compound I-36, N^1,N^3-bis(2-oxo-2,3,4,5-tetrahydro-1H-benzo[b]azepin-7-yl)isophthalamide] | C (C indicates inhibition of from 10% to 20%)
15 | Cc1cc2c(cc1NC(=O)c1cccc(C(=O)Nc3ccccc3)c1)OCO2 [Compound I-64, N^1-(6-methylbenzo[d][1,3]dioxol-5-yl)-N^3-phenylisophthalamide] | B (B indicates inhibition of from 20% to 30%)
16 | CC(C)n1cc2ccc(NC(=O)c3ccc4c(c3)C(=O)NC4=O)cc2n1 [Compound I-24, N-(2-isopropyl-2H-indazol-6-yl)-1,3-dioxoisoindoline-5-carboxamide] | C (C indicates inhibition of from 10% to 20%)

Second part, the compound after the results:

Row | % Inhibition of Apyrase | SMILES
17 | A (A indicates inhibition above 30%) | COc1ccc(C)cc1NC(=O)c1ccccc1C(=O)N(C)C1CCCCC1 [Compound I-8, N^1-cyclohexyl-N^2-(2-methoxy-5-methylphenyl)-N^1-methylphthalamide]
18 | A (A indicates inhibition above 30%) | CCOC(=O)c1ccc(NC(=O)c2cccc(C(=O)Nc3ccc(C(=O)OCC)cc3)c2)cc1 [Compound I-7, diethy 1 4,4′-(isophthaloylbis(azanediyl))dibenzoate]
19 | D (D indicates inhibition of <10%) | CCCNC(=O)c1cccc(C(=O)Nc2cccc3cn[nH]c23)c1 [Compound I-57, N^1-(1H-indazol-7-yl)-N^3-propylisophthalamide]
20 | D (D indicates inhibition of <10%) | O=C(Nc1ccc2scnc2c1)c1ccc(C(=O)NC2CC2)cc1 [Compound I-41, N^1-(benzo[d]thiazol-5-yl)-N^4-cyclopropylterephthalamide]
21 | D (D indicates inhibition of <10%) | Nc1ccnc(CNC(=O)c2ccc(C(=O)Nc3ccccc3)cc2)n1 [Compound I-55, N^1-((4-aminopyrimidin-2-yl)methyl)-N^4-phenylterephthalamide]
22 | D (D indicates inhibition of <10%) | O=C(Nc1ccccc1-c1ncc[nH]1)c1ccc(C(=O)NC2CC2)cc1 [Compound I-47, N^1-(2-(1H-imidazol-2-yl)phenyl)-N^4-cyclopropylterephthalamide]
23 | D (D indicates inhibition of <10%) | CN1CCN(C(=O)c2ccccc2C(=O)Nc2ccc(F)cc2)CC1 [Compound I-53, N-(4-fluorophenyl)-2-(4-methylpiperazine-1-carbonyl)benzamide]
24 | D (D indicates inhibition of <10%) | O=C(Nc1ccc(N2CCCC2=O)cc1)c1ccc(C(=O)Nc2ccc(N3CCCC3=O)cc2)cc1 [Compound I-46, N^1,N^4-bis(4-(2-oxopyrrolidin-1-yl)phenyl)terephthalamide]
25 | D (D indicates inhibition of <10%) | CNC(=O)c1cccc(C(=O)Nc2cccc(NC3CCCC3)c2)c1 [Compound I-44, N^1-(3-(cyclopentylamino)phenyl)-N^3-methylisophthalamide]
26 | D (D indicates inhibition of <10%) | O=C1CCCc2ccc(NC(=O)c3ccc4c(c3)C(=O)NCCO4)cc2N1 [Compound I-60, 5-oxo-N-(2-oxo-2,3,4,5-tetrahydro-1H-benzo[b]azepin-8-yl)-2,3,4,5-tetrahydrobenzo[f][1,4]oxazepine-7-carboxamide]
27 | D (D indicates inhibition of <10%) | CN(C(=O)c1cccc(C(=O)Nc2cc(Br)ccc2F)c1)c1ccccc1 [Compound I-65, N^1-(5-bromo-2-fluorophenyl)-N3-methyl-N^3-phenylisophthalamide]
28 | D (D indicates inhibition of <10%) | Cc1cc(C)c(NC(=O)c2ccc(C(=O)Nc3c(C)cc(C)cc3C)cc2)c(C)c1 [Compound I-51, N^1,N^4-dimesitylterephthalamide]
29 | A (A indicates inhibition above 30%) | N#Cc1cccc(NC(=O)c2ccc(C(=O)Nc3cccc(C#N)c3)cc2)c1 [Compound I-67, N^1,N^4-bis(3-cyanophenyl)terephthalamide]
